{
  "source": "paper PMC4111400",
  "about": "(Journal of Medicinal Chemistry, 2014)",
  "key": {"[1]": {"test_system": "Na+ channels in CAD cells", "assay": "frequency", "format": "cell-based, mouse", "details": "500 μM (Figure 9 legend: concentrations greater than 500 μM)"}, "[2]": {"test_system": "subcutaneous Metrazol (scMet) seizure", "details": "10−13; cited from earlier work"}, "[3]": {"test_system": "hippocampal kindled seizure", "details": "ip; cited from earlier work"}, "[4]": {"test_system": "Na+ channels in CAD cells", "details": "cited from earlier work"}, "[5]": {"test_system": "Na+ channels in CAD cells", "details": "100 μM; cited from earlier work"}},
  "note": "Where two headings read alike, the source gives them in different places.",
  "data": [
    {"smiles": "COC[C@@H](NC(C)=O)C(=O)NCc1ccccc1", "note": "[(R)-1, (R)-N-Benzyl 2-acetamido-3-methoxypropionamide]", "values": [
      {"measurement": "frequency (use) inhibition of Na+ currents", "setting": "[1]", "value": "significant inhibition of use-dependence"},
      {"measurement": "activity in the scMet model", "setting": "[2]", "value": "no activity"},
      {"measurement": "ED50, rat hippocampal seizure model", "setting": "[3]", "value": 14, "unit": "mg/kg"},
      {"measurement": "effect on Na+ channel fast inactivation", "setting": "[4]", "value": "did not affect Na^+ channel fast inactivation"},
      {"measurement": "frequency (use) inhibition of Na+ currents", "setting": "[5]", "value": "not observed notable frequency (use) inhibition of Na^+ currents"}
    ]}
  ]
}
